Experimental data published in patent US20230107216A1, “PANTETHEINE DERIVATIVES AND USES THEREOF” (Comet Therapeutics, Inc., priority 2018, published 2023).
Where two headings read alike, the source gives them in different places.

Tests used:
[1] = system: Subnormal activation of pyruvate dehydrogenase complex (PDH) primary fibroblasts GM01503 (GM1503A); test: Total NAD+ + NADH and NAD+ (NAD/NADH-Glo), PDH fibroblasts GM01503; format: cell-based; settings: Homo sapiens, Fibroblast, 24h, read-out: Increase in Total NAD+ + NADH
Experimental: Primary adherent fibroblasts were cultured in minimum essential medium (MEM) (Gibco, 25030081) supplemented with 2 mM L-Glutamine (Gibco, 25030081), 15% fetal bovine serum (FBS) (Gibco, 26400044) and 1% penicillin/streptomycin (Gibco, 5140122) at 37° C. and 5% CO2. Cells were collected for either passaging or experiment at ˜70-80% confluence. Cells were obtained by trypsinization and seeded in cell culture microplates either white plate (Thermo Fisher Scientific, 152028) for luminescent measurement or black plate (Thermo Fisher Scientific, 165305) for fluorescent based read out for different assays listed below. Cells were obtained by trypsinization and […] were seeded and allowed to adhere for 16-18 hours to have confluency around 70-80% in the cell well with culture media. After 24 hours prior to measurements (37° C., 5% CO2) media was changed to Dulbecco's Modified Eagle Medium (DMEM, Agilent Seahorse cat #103575-100) with the appropriate supplements as stated below.
Primary fibroblasts assayed were Propionic Acidemia (PA) (GM03590 Coriell Institute for Medical Research, Tsi 6337 Trans-Hit Bio), Methylmalonic Acidemia (MMA) (Tsi 5224 Trans-Hit Bio), Subnormal activation of pyruvate dehydrogenase complex (PDH) (GM01503 Coriell Institute for Medical Research), Very long-chain acyl-CoA dehydrogenase (VLCAD) (GM17475), Leigh Syndrome (LS) (GM03672, GM13411 Coriell Institute for Medical Research), Pyruvate Carboxylase Deficiency (PC) (GM00444 Coriell Institute for Medical Research). 10 μM of Compounds were added for 2 hours in PA, MMA lines and for 24h for the other fibroblast lines.
Assay was performed according to manufacturer instructions (NAD/NADH-Glo Assay Promega, G9072). The NAD/NADH-Glo Assay is a bioluminescent assay for detecting total oxidized and reduced nicotinamide adenine dinucleotides (NAD+ and NADH, respectively) from which ratio of NAD/NADH can be calculated. Briefly, for every assay a 12-point standard curve was prepared ranging from 400 nM to 0.625 nM. Media was removed and replaced with 50 μl of PBS for both assays.
For individual NAD+ and NADH measurement, 50 μl of 1% DTAB (Sigma Cat #D5047) (cell lysis reagent) in 0.2N NaOH was added to the plate and a total 100 μl of lysate was split into two plates with 50 μl each. 25 μl of 0.4N HCl were added to the NAD+ plate and both NAD+ and NADH plate were heated at 60° C. for 15 minutes. The acid and heat treatment destroyed NADH allowing individual NAD+ measurement while heating in basic conditions destroys NAD+ allowed individual NADH measurements. The plates were allowed to come to room temperature for 10 minutes and Trizma base (Sigma, T1699) was added to the NAD+ plate to neutralize the acid and HCl Trizma hydrochloride (Sigma, T2694) was added to the NADH plate. The NADNADH glo reagent was prepared by adding: 625 μl of NAD cycling substrate, 125 μl of reductase, 125 μl of reductase substrate, 125 μl NAD cycling enzyme to total of the 25 ml of NAD GLO reagent. 1:1 ratio of total volume of reagent was added to the individual NAD+, NADH measurement (total 100 μl) and 50 μl for total NAD/NAH measurement. Luminescence was read between 30-60 minutes within the linear range.
A total dead cell count was performed as described in Example 817 and only alive cells were used for analysis.

[2] = system: Venular Endothelial cells (HUVEC) (4H system); test: BioMAP 4H system (IL-4 and histamine); format: cell-based, human; settings: Homo sapiens, HUVEC, 24 h; 10 uM; procedure of Example 826; read-out: % decrease in VEGFRII
[3] = system: Peripheral blood mononuclear cells co-cultured with B-cells (BT system); test: cells; settings: Homo sapiens, 72 h
[4] = system: tyrosine hydroxylase positive mesencephalic neurons injured by 6-OHDA; test: Neuroprotective effect on damage induced by 6-OHDA on culture of mesencephalic neurons; format: cell-based; settings: Rattus norvegicus, Neuron, 6-OHDA 15 μM, 48h, read-out: % reversion of TH positive neurons (6-OHDA-mediated degradation of dopaminergic neurons)
Experimental: The protective effect of compounds of the present disclosure was determined on 6-OHDA-mediated injury on mesencephalon neuronal cultures.
A female Wistar rat (Janvier; France) of 15 days gestation was terminated by cervical dislocation, the fetuses were removed from the uterus and their brains were harvested and placed in ice-cold medium (Leibovitz's L15 medium, Gibco). Only ventral mesencephalic flexure was used for the cell preparations. The midbrain was dissociated by trypsinization. The reaction was stopped, and the suspension was triturated and centrifuged. The pellet of dissociated cells was resuspended in chemically defined medium consisted of Neurobasal (Gibco, 21103049), containing B27 supplement (Gibco, A3582801) and L-glutamine (Gibco, 25030081), 10 ng/ml (BDNF; Pepro Tech, France, 450-02) and 1 ng/ml (GDNF; Pepro Tech, 450-51).
Viable primary rat embryo mesencephalic cells were counted and seeded on 96-multi-wells plate precoated with poly-L-lysine. Cells were maintained in a humidified incubator at 37° C. in 5% CO2-95% air atmosphere and medium changed on day 2. On day 6, the culture medium was removed and replaced by new media without neurotrophic factors containing the compounds of the present disclosure (50-10 μM) or vehicle (0.1% DMSO). After 1h exposure, injury of mesencephalon neuronal cultures was induced by 6-OHDA (15 μM) for further 48h. A mixture of the growth factors GDNF (1 ng/ml) and BDNF (10 ng/ml) were used as reference compound. On day 8, the tyrosine hydroxylase positive neurons were evaluated. Cultures were fixed 30 min at 4° C. with paraformaldehyde in PBS (4%, Sigma). After, cells were permeabilized with 0.1% Triton X100 for 30 min, saturated with PBS containing 3% of BSA (bovine serum albumin) and incubated 2h with anti-tyrosine hydroxylase antibody (Sigma, 1:10000; clone TH-2) at 1/10000 in PBS containing 0.5% of BSA. Cells were washed three times with PBS containing 0.5% of BSA and incubated 1h with goat anti mouse antibody coupled with AF488 (Invitrogen A11001) diluted at 1/1000 in PBS containing 0.5% of BSA. Finally, nuclei were stained with DAPI (Thermo fisher, D1306) at 1/1000 in PBS containing 0.5% of BSA. After rinsing with PBS, the plate was visualized and examined with Cell Insight HCS (Thermo Scientific) to determine the number of tyrosine hydroxylase positive cells per well.
The results for each well were expressed as a percentage by setting the density of tyrosine hydroxylase positive cells under control conditions to 100%. Then the result for each condition was reported as mean±SEM from 4 independent cultures.
A global analysis of the data was performed using a one-way analysis of variance (ANOVA), followed by Fisher's Protected Least Significant Difference when applicable. The level of significance was set to p<0.05.

[5] = PDH GM1503A P10, assay condition B
[6] = PDH GM1503A P10, assay condition A

Row | Compound | activation at 10 µM [1, 5] [%] | inhibition at 10 µM [2] [%] | activation at 10 µM [1, 6] [%] | further results
1 | CC(=O)SCCNC(=O)CCNC(=O)[C@H](O)C(C)(C)COC(=O)[C@H](C)N [Compound 502, (3R)-3-[(2-[[2-(acetylsulfanyl)ethyl]carbamoyl]ethyl)carbamoyl]-3-hydroxy-2,2-dimethylpropyl (2S)-2-aminopropanoate] | ≥ 10 | ≥ 10 |  | inhibition at 1 µM ([3]; read-out: % decrease in sIL-17): ≥ 20%; activation at 10 µM ([3]; read-out: % increase in sIL-6): ≥ 10%
2 | C[C@H](O)CC(=O)CC(=O)SCCNC(=O)CCNC(=O)[C@H](O)C(C)(C)CO [Compound 1306, (2R)-2,4-dihydroxy-N-[2-[(2-[[(5S)-5-hydroxy-3-oxohexanoyl]sulfanyl]ethyl)carbamoyl]ethyl]-3,3-dimethylbutanamide] | ≥ 10 |  |  | 
3 | CC(=O)OCC(C)(C)[C@@H](O)C(=O)NCCC(=O)NCCSC(=O)CC(=O)CCC(=O)O [Compound 140, 6-[(2-[3-[(2R)-4-(acetyloxy)-2-hydroxy-3,3-dimethylbutanamido]propanamido]ethyl)sulfanyl]-4,6-dioxohexanoic acid] |  |  | ≥ 10 | inhibition at 50 µM ([4]; 50 uM): ≥ 30%
4 | CC(=O)OCC(C)(C)[C@@H](OC(C)=O)C(=O)NCCC(=O)NCCSC(C)=O [Compound 1264, (1R)-3-(acetyloxy)-1-[(2-[[2-(acetylsulfanyl)ethyl]carbamoyl]ethyl)carbamoyl]-2,2-dimethylpropyl acetate] |  | ≥ 10 | ≥ 10 | 
5 | CC(=O)SCCNC(=O)CCNC(=O)[C@H](O)C(C)(C)COC(=O)CN [Compound 560, (3R)-3-[(2-[[2-(acetylsulfanyl)ethyl]carbamoyl]ethyl)carbamoyl]-3-hydroxy-2,2-dimethylpropyl 2-aminoacetate] |  |  | ≥ 10 | inhibition at 10 µM ([4]; 10 uM): ≥ 30%
6 | CCC(=O)CC(=O)SCCNC(=O)CCNC(=O)[C@H](O)C(C)(C)CO [Compound 382, (2R)-2,4-dihydroxy-3,3-dimethyl-N-[2-([2-[(3-oxopentanoyl)sulfanyl]ethyl]carbamoyl)ethyl]butanamide] |  |  | ≥ 10 | 
